Test results reported in patent publication EP3184514A1, “AUTOPHAGY INHIBITORS” (Deutsches Krebsforschungszentrum, priority 2015, dated 2017).

Assays:
U2OS cells = assay: autophagic flux by confocal microscopy and western blotting; format: cell-based, Human
Protocol: […]. After harvesting, cells were lysed with radioimmunoprecipitation assay (RIPA) buffer (50 mM Tris-HCl, pH 7.5, 150 mM NaCl, 0.5 % deoxycholate, 1 % Triton X-100, 0.1 % SDS and 1x protease inhibitors) and left on ice for 30 minutes. Cell lysates were clarified by centrifugation at 10000xg for 20 min at 4 °C. Protein concentrations of the supernatants were determined by BCA assay and the absorbance was measured at 562 nm. SDS-PAGE and WB was performed.
For screening purposes, cells were seeded in 384 well plates and left over night for attachment. […]. For controls, cells were treated with 250 nM torin and/or 100 nM BafA1 for 2 hours.
(§1) Afterwards, medium was removed and 4 % (w/v) paraformaldehyde (PFA) in PBS buffer was added to the cells for 20 minutes, incubated at room temperature. Cells were permeabilized with 0.1 % (v/v) Triton X-100 for 10 min at room temperature and washed with PBS. Cells were blocked with 3 % (w/v) bovine serum albumin (BSA) in PBS for 45 minutes at 37 °C and then incubated with anti-LC3B (PM036, MBL) or anti-p62 (PM045 or M162-3, MBL) primary antibody diluted in 0.3 % BSA (1:2000 or 1:500) for 1.5-2 hours at 37 °C. Cells were washed three times with PBS. Secondary Alexa Fluor 488 - labeled antibodies (A-11008, Invitrogen) were diluted in 0.3 % BSA (1:2500) and incubated on cells for 15 minutes at 37 °C. Cells were washed once with PBS, incubated with DRAQ5 (#4084, Cell Signaling) diluted in PBS (1:5000) for 10 minutes and washed three times with PBS.
384 well plates were then analyzed with an automated confocal microscope Opera (PerkinElmer) enabling high throughput high content screening image analysis. […] Signal was detected with a fast gated CCD camera. […]
The LC3B protein is a ubiquitin-like protein that can be conjugated to phosphatidylethanolamine (PE) in the membrane of the incipient autophagosome. […] Autophagic flux is often inferred on the basis of LC3B-II turnover, measured by western blot (WB) or immunofluorescence (IF) in the presence and absence of lysosomal degradation. […]

PANC1 = assay: MTT cell viability assay; format: cell-based; details: 72 and 96 hours
Protocol: (§2) The MTT assay is a colorimetric assay for assessing cell viability. NAD(P)H-dependent cellular oxidoreductase enzymes in metabolic active cells reduce the tetrazolium dye MTT 3-(4,5-dimethylthiazol-2-yl)-2,5-diphenyltetrazolium bromide to its insoluble purple formazan. All cell types were seeded in 96 well plates and left over night for attachment. Next day, cells were treated with 100 µM compound I-1 for 24, 48, 72, and 96 hours. For controls, 1 µM staurosporine and 100 nM BafA1 were used. The assay was performed according to manufacturer's instructions and the absorbance of the formazan product was measured at 595 nm.

A549 = assay: MTT cell viability assay; format: cell-based
Protocol: as §2

HCT116 = assay: MTT cell viability assay; format: cell-based; details: 72 and 96 hours
Protocol: as §2

PANC1, HCT116, A549 = assay: LC3B and p62 spots in autophagy-dependent cancer cell lines; format: cell-based; details: 1 hr, 100 µM; all three cell lines
Protocol: For screening purposes, cells were seeded in 384 well plates and left over night for attachment. […] For controls, cells were treated with 250 nM torin and/or 100 nM BafA1 for 2 hours.
as §1
384 well plates were then analyzed with an automated confocal microscope Opera (PerkinElmer) enabling high throughput high content screening image analysis. Confocal images were taken at the Institute of Biochemistry II, Goethe University Medical School, Theodor-Stern-Kai 7, 60590 Frankfurt am Main, Germany. […] Signal was detected with a fast gated CCD camera. […]

LC3B = assay: NMR titration (1H-15N HSQC, chemical shift perturbations); format: binding; details: 10 fold excess of compound, before prolonged incubation

Brc1ccc(CSC2=NCN(Cc3cccnc3)CN2)cc1 [Compound I-1, 6-((4-bromobenzyl)thio)-3-(pyridin-3-ylmethyl)-1,2,3,4-tetrahydro-1,3,5-triazine]
numbers of LC3B spots and levels of LC3B-II (U2OS cells; 100 µM compound together with BafA1 100 nM, compared with single treatment): did not increased further
amount of LC3B-II protein and LC3B spots (U2OS cells; 100 µM, 1 hr): increased
reduced cell viability (PANC1): approximately 50%
reduced cell viability (A549; 72 and 96 hours): approximately 50%
cell viability (A549; 48 hours): unaffected
cell survival (HCT116): almost no cell survival
number of LC3B and p62 spots (PANC1, HCT116, A549): increased
chemical shift perturbations (CSP) of LC3B (LC3B): does not induce any significant CSPs
